Patent US12077503B2, “Substituted cyclic amides and their use as herbicides” (FMC CORPORATION, priority 2015, dated 2024)

What was measured:
Assay type in all cases: in vivo
Kochia (Kochia scoparia) [1] = experiment: Test A preemergence; settings: Bassia scoparia, pre-emergence, 240 h, 0 to 100 scale where 0 is no effect and 100 is complete control, read-out: Kochia plant response rating
How it was run: (§1)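 Seeds sprayed preemergence with a directed soil spray, or plants at 2 to 10 cm height and one- to two-leaf stage sprayed postemergence, with test chemicals in a non-phytotoxic solvent mixture containing surfactant, in loam soil–sand blend. Injury rated visually against untreated controls after about 10 d in greenhouse, 0 (no effect) to 100 (complete control).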

[2] = test system: barnyardgrass (Echinochloa crus-galli); experiment: Test A preemergence; settings: Echinochloa crus-galli, pre-emergence, 240 h, 0 to 100 scale where 0 is no effect and 100 is complete control, read-out: Barnyardgrass plant response rating
How it was run: as §1

[3] = test system: giant foxtail (Setaria faberii); experiment: Test A preemergence; settings: Setaria faberi, pre-emergence, 240 h, 0 to 100 scale where 0 is no effect and 100 is complete control, read-out: Foxtail, Giant plant response rating
How it was run: as §1

[4] = test system: pigweed (Amaranthus retroflexus); experiment: Test A preemergence; settings: Amaranthus retroflexus, pre-emergence, 240 h, 0 to 100 scale where 0 is no effect and 100 is complete control, read-out: Pigweed plant response rating
[5] = test system: ragweed (common ragweed, Ambrosia elatior); experiment: Test A preemergence; settings: Ambrosia artemisiifolia, pre-emergence, 240 h, 0 to 100 scale where 0 is no effect and 100 is complete control, read-out: Ragweed plant response rating
How it was run: as §1

[6] = test system: ryegrass, Italian (Italian ryegrass, Lolium multiflorum); experiment: Test A preemergence; settings: Lolium multiflorum, pre-emergence, 240 h, 0 to 100 scale where 0 is no effect and 100 is complete control, read-out: Ryegrass, Italian plant response rating
How it was run: as §1

[7] = test system: Galium (catchweed bedstraw, Galium aparine); experiment: Test A postemergence; settings: Galium, post-emergence, 240 h, Postemergence, read-out: Galium plant response rating (0 to 100 scale)
How it was run: as §1

Kochia (Kochia scoparia) [8] = experiment: Test A postemergence; settings: Bassia scoparia, post-emergence, 240 h, Postemergence, read-out: Kochia plant response rating (0 to 100 scale)
How it was run: as §1

[9] = test system: barnyardgrass (Echinochloa crus-galli); experiment: Test A postemergence; settings: Echinochloa crus-galli, post-emergence, 240 h, Postemergence
How it was run: as §1

[10] = test system: blackgrass (Alopecurus myosuroides); experiment: Test A postemergence; settings: Alopecurus myosuroides, post-emergence, 240 h, Postemergence, read-out: Blackgrass plant response rating (0 to 100 scale)
How it was run: as §1

corn (Zea mays) = experiment: Test A postemergence; settings: Zea mays, post-emergence, 240 h, Postemergence, read-out: Corn plant response rating (0 to 100 scale)
How it was run: as §1

[11] = test system: giant foxtail (Setaria faberii); experiment: Test A postemergence; settings: Setaria faberi, post-emergence, 240 h, Postemergence, read-out: Foxtail, Giant plant response rating (0 to 100 scale)
How it was run: as §1

[12] = test system: pigweed (Amaranthus retroflexus); experiment: Test A postemergence; settings: Amaranthus retroflexus, post-emergence, 240 h, Postemergence, read-out: Pigweed plant response rating (0 to 100 scale)
How it was run: as §1

[13] = test system: ragweed (common ragweed, Ambrosia elatior); experiment: Test A postemergence; settings: Ambrosia artemisiifolia, post-emergence, 240 h, Postemergence, read-out: Ragweed plant response rating (0 to 100 scale)
How it was run: as §1

[14] = test system: ryegrass, Italian (Italian ryegrass, Lolium multiflorum); experiment: Test A postemergence; settings: Lolium multiflorum, post-emergence, 240 h, Postemergence, read-out: Ryegrass, Italian plant response rating (0 to 100 scale)
How it was run: as §1

[15] = test system: wheat (Triticum aestivum); experiment: Test A postemergence; settings: Triticum aestivum, post-emergence, 240 h, Postemergence, read-out: Wheat plant response rating (0 to 100 scale)
How it was run: as §1

[16] = test system: barnyardgrass (Echinochloa crus-galli); experiment: Test B flooded paddy test; settings: Echinochloa crus-galli, 250 g ai/ha, Flood; 0 to 100 scale where 0 is no effect and 100 is complete control; read-out: Barnyardgrass plant response rating
How it was run: (§2)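 Flooding to 3 cm over soil accompanied treatment, which consisted of adding compound to the standing water around 2-leaf plants; depth was then maintained. Visual assessment versus controls followed at 13 to 15 d (scale 0–100, 0 meaning no effect).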

[17] = test system: ducksalad (Heteranthera limosa); experiment: Test B flooded paddy test; settings: Heteranthera limosa, 250 g ai/ha, Flood; 0 to 100 scale where 0 is no effect and 100 is complete control; read-out: Ducksalad plant response rating
How it was run: as §2

rice (Oryra sativa) = experiment: Test B flooded paddy test; settings: Oryza sativa, 250 g ai/ha, Flood; 0 to 100 scale where 0 is no effect and 100 is complete control; read-out: Rice plant response rating
How it was run: as §2

[18] = test system: sedge, umbrella (small-flower umbrella sedge, Cyperus difformis); experiment: Test B flooded paddy test; settings: Cyperus difformis, 250 g ai/ha, Flood; 0 to 100 scale where 0 is no effect and 100 is complete control; read-out: Sedge, Umbrella plant response rating
How it was run: as §2

[19] = 125 g ai/ha, preemergence, visual injury rating, approximately 10 d
[20] = 125 g ai/ha, visual rating about 10 d after treatment
[21] = 31 g ai/ha, 0 is no effect, 100 is complete control

O=C(Nc1cccc(F)c1F)[C@H]1C(=O)N(CC(F)F)C[C@@H]1c1cccc(C(F)(F)F)c1 [Compound 1296]
pest or weed control at 31 g/ha (Kochia (Kochia scoparia) [1]; 31 g ai/ha, Preemergence): 0% | pest or weed control at 125 g/ha (Kochia (Kochia scoparia) [1]; [19]): 0% | pest or weed control at 31 g/ha ([2]; 31 g ai/ha, Preemergence): 20% | pest or weed control at 125 g/ha [2, 19]: 70% | pest or weed control at 31 g/ha ([3]; 31 g ai/ha, Preemergence): 20% | pest or weed control at 125 g/ha [3, 19]: 60% | pest or weed control at 31 g/ha ([4]; 31 g ai/ha, Preemergence): 0% | pest or weed control at 125 g/ha [4, 19]: 0% | pest or weed control at 31 g/ha ([5]; 31 g ai/ha, Preemergence): 0% | pest or weed control at 125 g/ha [5, 19]: 0% | pest or weed control at 31 g/ha ([6]; 31 g ai/ha, Preemergence): 0% | pest or weed control at 125 g/ha [6, 19]: 0% | pest or weed control at 125 g/ha [7, 20]: 0% | pest or weed control at 31 g/ha [7, 21]: 0% | pest or weed control at 125 g/ha (Kochia (Kochia scoparia) [8]; [20]): 0% | pest or weed control at 31 g/ha (Kochia (Kochia scoparia) [8]; [21]): 0% | pest or weed control at 125 g/ha ([9]; 125 g ai/ha, visual rating about 10 d after treatment, read-out: Barnyardgrass plant response rating (0 to 100 scale, 0 no effect, 100 complete control)): 30% | pest or weed control at 31 g/ha ([9]; 31 g ai/ha, 0 is no effect, 100 is complete control, read-out: Barnyardgrass plant response rating (0 to 100 scale)): 0% | pest or weed control at 125 g/ha [10, 20]: 0% | pest or weed control at 31 g/ha [10, 21]: 0% | plant injury at 125 g/ha (corn (Zea mays); [20]): 0% | plant injury at 31 g/ha (corn (Zea mays); [21]): 0% | pest or weed control at 125 g/ha [11, 20]: 30% | pest or weed control at 31 g/ha [11, 21]: 0% | pest or weed control at 125 g/ha [12, 20]: 0% | pest or weed control at 31 g/ha [12, 21]: 0% | pest or weed control at 125 g/ha [13, 20]: 0% | pest or weed control at 31 g/ha [13, 21]: 0% | pest or weed control at 125 g/ha [14, 20]: 0% | pest or weed control at 31 g/ha [14, 21]: 0% | plant injury at 125 g/ha [15, 20]: 0% | plant injury at 31 g/ha [15, 21]: 0% | pest or weed control at 250 g/ha [16]: 15% | pest or weed control at 250 g/ha [17]: 0% | pest or weed control at 250 g/ha (rice (Oryra sativa)): 30% | pest or weed control at 250 g/ha [18]: 0%
